Values of other authors in US20120020948A1, “DAG-TYPE AND INDIRECT PROTEIN KINASE C ACTIVATORS AND ANTICOAGULANT FOR THE TREATMENT OF STROKE” (priority 2010, published 2012).

Columns and labels:
[1] = system: PKC; conditions: for affinity for PKC: A-ring bryologs
[2] = system: NCI 60 cell line screen

Structure (SMILES)	affinity for PKC [1] [nM]	further results
CCCCCCCC(=O)O[C@H]1/C(=C/C(=O)OC)C[C@H]2C[C@H](CO)OC(=O)C[C@H](O)C[C@@H]3CCC[C@H](C[C@@H]4CCO[C@H](/C=C/C(C)(C)[C@]1(O)O2)O4)O3 [Analog 1]		PKC Affin [1]: 0.25 nM; affinity for PKC (in words) [1]: highest affinity for PKC
CC1=CC[C@H](C)C(C)(C)[C@@H]1/C=C/C(C)=C/CC[C@@]1(CO)[C@H](CCCO)/C(=C(/C)C=O)CC[C@]1(C)O [Iripallidal]		GI50 (concentration required to inhibit growth by 50%) [2]: micromolar to nanomolar range
CCCCCCCC(=O)OC1C(=CC(=O)OC)CC2CC(CO)OC(=O)CC(O)CCOC(C(C)(C)C)CC3CCOC(C=CC(C)(C)C1(O)O2)O3 (stereo not drawn) [bryolog 3]	6.5	
CCCCCCCC(=O)OC1C(=CC(=O)OC)CC2CC(CO)OC(=O)CC(O)CCOC(c3ccccc3)CC3CCOC(C=CC(C)(C)C1(O)O2)O3 (stereo not drawn) [bryolog 4]	2.3	
CCCCCCCC(=O)OC1C(=CC(=O)OC)CC2CC(CO)OC(=O)CC(O)CCOC(CCCc3ccc(Br)cc3)CC3CCOC(C=CC(C)(C)C1(O)O2)O3 (stereo not drawn) [bryolog 5]	1.9	
